Results from patent publication US10894777B2, “TG2 inhibitor piperazine compounds and uses thereof” (UNIVERSITY OF OTTAWA, priority 2016, dated 2021).

Columns and labels:
Assay type in all cases: cell-based, human
A431 cells = experiment: EMT marker immunoblot, A431 cells; conditions: 20 μM, 48 h
Procedure: In (A), it is shown that A431-derived ECS cells have elevated TG2 and mesenchymal markers. A431 cells (40,000 cells/well) were grown in spheroid media in monolayer conditions or as non-attached spheroids (ECS cells) for 10 d. Cells were harvested and lysates prepared for immunoblot. In (B), A431 cells were electroporated with 3 μg of control- or TG2-siRNA and at 72 h extracts were prepared to assay TG2 and EMT marker level. In (C), A431-derived ECS cells were electroporated with 3 μg of the indicated siRNA and then grown as spheroids for 96 h. […] In (D), A431 cells (500,000 cells/well) were plated in monolayer culture in spheroid media in 100 mm dishes. The following day, at time zero, 0 or 20 μM NC9 was added with fresh addition of medium and NC9 at 24 h. At 48 h the cells were harvested and extracts prepared for immunoblot. In (E), A431 cells were pretreated in 0 or 20 μM NC9 for 2 h and then harvested and 25,000 cells were seeded in the upper chamber above a matrigel-coated membrane in 1 mL of growth medium containing 1% FCS in a Millicell chamber. The lower chamber was filled with growth medium containing 10% FCS. […] Confluent monolayers were then scratched with a 10-μL pipette tip, rinsed, and width of the wound was monitored for 0-14 h. […]

EGFR = experiment: Immunoblot of EGFR and phospho-EGFR in GBM cells
Procedure: In (A) it is shown that shorter treatments with NC9 had no effect on EGF-stimulated EGFR phosphorylation in U87 cells. U87 cells were treated with 10 μM NC9 or DMSO control for 24 h followed by 10 min of 100 ng/mL EGF treatment. At the end of the treatments, cells were lysed and 20 μg of lysates from U87 cells were blotted for phospho-EGFR, EGFR and tubulin. […] Cell medium was changed every 24 h and fresh inhibitors or DMSO was added to the medium. At the end of the treatment, cells were lysed and 20 μg of lysates from cells U87 and T98G were blotted for phospho-EGFR, EGFR and actin.
Immunoblotting. Cells were rinsed in ice-cold phosphate-buffered saline (PBS) and collected in lysis buffer, containing 0.5% NP-40, 150 mM NaCl, 10 mM Tris-Cl (pH 7.4), 1 mM EGTA, 1 mM EDTA, 1 mM phenylmethylsulphonyl fluoride, 1 μM okadaic acid, and 10 μg/mL each of aprotinin, leupeptin, and pepstatin. Samples were sonicated on ice and centrifuged at 16,000 g for 10 min. Protein concentrations of supernatants were then determined by the bicinchoninic acid assay with bovine serum albumin (BSA) as a standard and samples were diluted to a final concentration of 1 mg/mL with 2× reducing stop buffer (0.25 M Tris-HCl, pH 6.8, 5 mM EDTA, 5 mM EGTA, 25 mM dithiothreitol, 2% SDS, 10% glycerol, and bromophenol blue as the tracking dye). […]

U251 cells = experiment: Agarose colony formation assay, U251 cells; conditions: 10 μM, 2 weeks
Procedure: Agarose colony formation assay. Agarose colony formation assay was conducted as described (Horman, S. R. et al., J. Biomol. Screen 18(10):1298-308, 2013; Zhang, K. et al., Tumour Biol. 35(3):2537-48, 2014) using 6-well plates and 5,000 cells in each well. 10 μM NC9 or DMSO was added to every layer at the start of the experiments. 2 mL liquid MEM containing 10 μM NC9 or DMSO was used to cover the agarose and it was changed 3 times a week. Colony growth was monitored every day and at the end of 10-15 days, the colonies were fixed with 4% paraformaldehyde, stained with 0.005% crystal violet, washed with PBS twice and 40 random pictures were taken from each treatment group. A person blinded for the treatments measured the area of the colonies using ImageJ program and the volumes were calculated from the area data under the assumption that the colonies are perfect spheres. The volumes were used to compare the effect of NC9 on colony growth.

C=CC(=O)NCCCC[C@H](NC(=O)OCc1ccccc1)C(=O)NCCOCCOCCNS(=O)(=O)c1cccc2c(N(C)C)cccc12 [NC9]
EMT markers expression (A431 cells): reduction in EMT markers expression | phospho-EGFR and EGFR levels, longer treatment (EGFR; U87 and T98G cells, 10 μM, 48-72 h): decrease phospho-EGFR and EGFR levels in U87 cells, but not T98G cells | EGFR or phospho-EGFR levels, shorter treatment (EGFR; U87 cells, 10 μM 24 h, then 100 ng/mL EGF 10 min): did not result in a decrease | colony growth, U251 (U251 cells): significantly reduced the growth
